{
  "source": "ChEMBL document CHEMBL1201862",
  "about": "“PubChem BioAssay data set” (2004)",
  "assay_in_all_cases": "DTP human tumour cell line panel, 48 h",
  "key": {"[1]": {"test_system": "DLD-1"}, "[2]": {"test_system": "DMS-114"}, "[3]": {"test_system": "DMS-273"}, "[4]": {"test_system": "HOP-18"}, "[5]": {"test_system": "KM-20L2"}, "[6]": {"test_system": "LXFL 529"}, "[7]": {"test_system": "M19-MEL"}, "[8]": {"test_system": "RXF 631"}, "[9]": {"test_system": "XF498"}},
  "note": "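A five-concentration, 48-hour dose response in 96-well plates underlies each endpoint, interpolated linearly between surrounding concentrations. Abbreviation: GI50, concentration required for 50% inhibition of growth.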 Activity calls are given as the source filed them. Rule as the data show it: active = GI50 up to about 1.1 µM and inactive = higher.",
  "data": [
    {"smiles": "ClC(Cl)=C1C(=C(Cl)Cl)C(Cl)(Cl)C1(Cl)Cl", "values": [
      {"measurement": "GI50", "setting": "[1]", "result": "1.22 µM (inactive)"},
      {"measurement": "GI50", "setting": "[2]", "result": "0.748 µM (active)"},
      {"measurement": "GI50", "setting": "[3]", "result": "2.64 µM (inactive)"},
      {"measurement": "GI50", "setting": "[4]", "result": "5.9 µM (inactive)"},
      {"measurement": "GI50", "setting": "[5]", "result": "4.41 µM (inactive)"},
      {"measurement": "GI50", "setting": "[6]", "result": "0.938 µM (active)"},
      {"measurement": "GI50", "setting": "[7]", "result": "2.72 µM (inactive)"},
      {"measurement": "GI50", "setting": "[8]", "result": "3.21 µM (inactive)"},
      {"measurement": "GI50", "setting": "[9]", "result": "9.2 µM (inactive)"}
    ]},
    {"smiles": "CCc1ccc(Cc2ccc(CC)c(NC(=O)C(=O)C3NC(=S)NC3=O)c2CC)c(CC)c1NC(=O)C(=O)C1NC(=S)NC1=O", "note": "(stereo unspecified)", "values": [
      {"measurement": "GI50", "setting": "[1]", "result": "> 100 µM (inactive)"},
      {"measurement": "GI50", "setting": "[3]", "result": "> 100 µM (inactive)"},
      {"measurement": "GI50", "setting": "[5]", "result": "> 100 µM (inactive)"},
      {"measurement": "GI50", "setting": "[6]", "result": "> 100 µM (inactive)"},
      {"measurement": "GI50", "setting": "[7]", "result": "> 100 µM (inactive)"},
      {"measurement": "GI50", "setting": "[8]", "result": "> 100 µM (inactive)"}
    ]},
    {"smiles": "O=S(=O)(c1ccccc1)N1N=C2c3ccccc3CCC[C@H]2C1c1ccccc1", "note": "(stereo partly specified)", "values": [
      {"measurement": "GI50", "setting": "[1]", "result": "> 100 µM (inactive)"},
      {"measurement": "GI50", "setting": "[2]", "result": "> 100 µM (inactive)"},
      {"measurement": "GI50", "setting": "[3]", "result": "> 100 µM (inactive)"},
      {"measurement": "GI50", "setting": "[4]", "result": "> 100 µM (inactive)"},
      {"measurement": "GI50", "setting": "[5]", "result": "> 100 µM (inactive)"},
      {"measurement": "GI50", "setting": "[6]", "result": "> 100 µM (inactive)"},
      {"measurement": "GI50", "setting": "[7]", "result": "> 100 µM (inactive)"},
      {"measurement": "GI50", "setting": "[9]", "result": "> 100 µM (inactive)"}
    ]},
    {"smiles": "CCc1ccccc1NC(=O)CCc1nnc(S)[nH]1", "values": [
      {"measurement": "GI50", "setting": "[1]", "result": "> 100 µM (inactive)"},
      {"measurement": "GI50", "setting": "[2]", "result": "> 100 µM (inactive)"},
      {"measurement": "GI50", "setting": "[3]", "result": "> 100 µM (inactive)"},
      {"measurement": "GI50", "setting": "[5]", "result": "> 100 µM (inactive)"},
      {"measurement": "GI50", "setting": "[6]", "result": "> 100 µM (inactive)"},
      {"measurement": "GI50", "setting": "[7]", "result": "> 100 µM (inactive)"},
      {"measurement": "GI50", "setting": "[8]", "result": "> 100 µM (inactive)"},
      {"measurement": "GI50", "setting": "[9]", "result": "> 100 µM (inactive)"}
    ]},
    {"smiles": "CC1=C(C#N)C(=O)CC(c2ccc(Cl)cc2)N(C)N1", "note": "(stereo unspecified)", "values": [
      {"measurement": "GI50", "setting": "[1]", "result": "> 100 µM (inactive)"},
      {"measurement": "GI50", "setting": "[2]", "result": "> 100 µM (inactive)"},
      {"measurement": "GI50", "setting": "[4]", "result": "24.4 µM (inactive)"},
      {"measurement": "GI50", "setting": "[6]", "result": "> 100 µM (inactive)"},
      {"measurement": "GI50", "setting": "[9]", "result": "> 100 µM (inactive)"}
    ]},
    {"smiles": "O=C(O)CNS(=O)(=O)c1ccc(NC(=O)c2ccccc2[N+](=O)[O-])cc1", "values": [
      {"measurement": "GI50", "setting": "[1]", "result": "> 100 µM (inactive)"},
      {"measurement": "GI50", "setting": "[3]", "result": "> 100 µM (inactive)"},
      {"measurement": "GI50", "setting": "[4]", "result": "> 100 µM (inactive)"},
      {"measurement": "GI50", "setting": "[5]", "result": "> 100 µM (inactive)"},
      {"measurement": "GI50", "setting": "[6]", "result": "> 100 µM (inactive)"},
      {"measurement": "GI50", "setting": "[7]", "result": "> 100 µM (inactive)"},
      {"measurement": "GI50", "setting": "[9]", "result": "> 100 µM (inactive)"}
    ]},
    {"smiles": "CCN(CC)CCSc1c2ccccc2nc2c(OC)ccc(OC)c12", "values": [
      {"measurement": "GI50", "setting": "[1]", "result": "1.99 µM (inactive)"},
      {"measurement": "GI50", "setting": "[2]", "result": "1.63 µM (inactive)"},
      {"measurement": "GI50", "setting": "[3]", "result": "5.08 µM (inactive)"},
      {"measurement": "GI50", "setting": "[5]", "result": "3.39 µM (inactive)"},
      {"measurement": "GI50", "setting": "[6]", "result": "2.3 µM (inactive)"},
      {"measurement": "GI50", "setting": "[7]", "result": "8 µM (inactive)"},
      {"measurement": "GI50", "setting": "[8]", "result": "2.93 µM (inactive)"},
      {"measurement": "GI50", "setting": "[9]", "result": "2.42 µM (inactive)"}
    ]},
    {"smiles": "C=CC(C)(C)[C@@]12CC3C(=O)N[C@@H](Cc4ccccc4)C(=O)N3[C@@H]1N(C(C)=O)c1ccccc12", "note": "(stereo partly specified)", "values": [
      {"measurement": "GI50", "setting": "[1]", "result": "66.2 µM (inactive)"},
      {"measurement": "GI50", "setting": "[2]", "result": "75.3 µM (inactive)"},
      {"measurement": "GI50", "setting": "[3]", "result": "61.7 µM (inactive)"},
      {"measurement": "GI50", "setting": "[4]", "result": "64 µM (inactive)"},
      {"measurement": "GI50", "setting": "[5]", "result": "> 100 µM (inactive)"},
      {"measurement": "GI50", "setting": "[6]", "result": "52.6 µM (inactive)"},
      {"measurement": "GI50", "setting": "[7]", "result": "87.5 µM (inactive)"},
      {"measurement": "GI50", "setting": "[8]", "result": "58.7 µM (inactive)"},
      {"measurement": "GI50", "setting": "[9]", "result": "> 100 µM (inactive)"}
    ]},
    {"smiles": "CC(C)(C)C(=O)Nc1cccc2oc(-c3ccccc3)cc12", "values": [
      {"measurement": "GI50", "setting": "[1]", "result": "> 100 µM (inactive)"},
      {"measurement": "GI50", "setting": "[2]", "result": "> 100 µM (inactive)"},
      {"measurement": "GI50", "setting": "[3]", "result": "> 100 µM (inactive)"},
      {"measurement": "GI50", "setting": "[4]", "result": "> 100 µM (inactive)"},
      {"measurement": "GI50", "setting": "[5]", "result": "> 100 µM (inactive)"},
      {"measurement": "GI50", "setting": "[6]", "result": "36.3 µM (inactive)"},
      {"measurement": "GI50", "setting": "[7]", "result": "> 100 µM (inactive)"},
      {"measurement": "GI50", "setting": "[8]", "result": "47 µM (inactive)"}
    ]},
    {"smiles": "CSc1nc(NC2OCC(OC(C)=O)C(OC(C)=O)C2OC(C)=O)c(/N=C\\C=N\\c2c(NC3OCC(OC(C)=O)C(OC(C)=O)C3OC(C)=O)nc(SC)[nH]c2=O)c(=O)[nH]1", "note": "(stereo unspecified)", "values": [
      {"measurement": "GI50", "setting": "[1]", "result": "> 100 µM (inactive)"},
      {"measurement": "GI50", "setting": "[2]", "result": "> 100 µM (inactive)"},
      {"measurement": "GI50", "setting": "[3]", "result": "> 100 µM (inactive)"},
      {"measurement": "GI50", "setting": "[4]", "result": "> 100 µM (inactive)"},
      {"measurement": "GI50", "setting": "[5]", "result": "> 100 µM (inactive)"},
      {"measurement": "GI50", "setting": "[6]", "result": "> 83.6 µM (inactive)"},
      {"measurement": "GI50", "setting": "[7]", "result": "> 100 µM (inactive)"},
      {"measurement": "GI50", "setting": "[8]", "result": "74 µM (inactive)"}
    ]}
  ]
}
